According to US20150193575A1, “SYSTEMS AND METHODS OF SELECTING COMPOUNDS WITH REDUCED RISK OF CARDIOTOXICITY” (The Governors of the University of Alberta, priority 2013, published 2015):

What was measured:
hERG channel [1] = molecular target: T1, hERG channel (Homo sapiens, UniProt Q12809); experiment: Automated patch clamp (IonFlux) on AC10 cardiomyocytes stably expressing hERG; settings: for effect on hERG tail currents / electrophysiology (in words): AC10 cardiomyocytes
hERG channel [2] = molecular target: T1, hERG channel; experiment: Predictor hERG fluorescence polarization assay
Method: Compounds that bind to the hERG channel proteins were identified by their ability to displace the tracer (Predictor hERG Tracer Red) and decrease the fluorescence polarization. The Tracer Red ligand was stored in 100% DMSO and diluted to 8 nM in assay buffer (50 mM Tris-HCl, 1 mM MgCl2, 10 mM KCl, 0.05% Pluronic F127, pH 7.4, 4° C.) on the day of the experiment. Test samples and controls were diluted in assay buffer to 16 concentrations with half-log intervals. Cell membranes were removed from the −80° C. freezer and placed on ice after defrosting. Membranes working solution protein concentration was 0.3 mg/mL. […] IC50 values were derived by fitting a sigmoidal function to concentration-response data, where concentration-dependent inhibition was observed. All IC50 data were calculated and analyzed using GraphPad Prism 6 (GraphPad Software).

hERG1 potassium channel = hERG1 potassium channel (Homo sapiens, UniProt Q12809); experiment: in vitro
hERG1 potassium channel, sequence (Q12809 whole entry): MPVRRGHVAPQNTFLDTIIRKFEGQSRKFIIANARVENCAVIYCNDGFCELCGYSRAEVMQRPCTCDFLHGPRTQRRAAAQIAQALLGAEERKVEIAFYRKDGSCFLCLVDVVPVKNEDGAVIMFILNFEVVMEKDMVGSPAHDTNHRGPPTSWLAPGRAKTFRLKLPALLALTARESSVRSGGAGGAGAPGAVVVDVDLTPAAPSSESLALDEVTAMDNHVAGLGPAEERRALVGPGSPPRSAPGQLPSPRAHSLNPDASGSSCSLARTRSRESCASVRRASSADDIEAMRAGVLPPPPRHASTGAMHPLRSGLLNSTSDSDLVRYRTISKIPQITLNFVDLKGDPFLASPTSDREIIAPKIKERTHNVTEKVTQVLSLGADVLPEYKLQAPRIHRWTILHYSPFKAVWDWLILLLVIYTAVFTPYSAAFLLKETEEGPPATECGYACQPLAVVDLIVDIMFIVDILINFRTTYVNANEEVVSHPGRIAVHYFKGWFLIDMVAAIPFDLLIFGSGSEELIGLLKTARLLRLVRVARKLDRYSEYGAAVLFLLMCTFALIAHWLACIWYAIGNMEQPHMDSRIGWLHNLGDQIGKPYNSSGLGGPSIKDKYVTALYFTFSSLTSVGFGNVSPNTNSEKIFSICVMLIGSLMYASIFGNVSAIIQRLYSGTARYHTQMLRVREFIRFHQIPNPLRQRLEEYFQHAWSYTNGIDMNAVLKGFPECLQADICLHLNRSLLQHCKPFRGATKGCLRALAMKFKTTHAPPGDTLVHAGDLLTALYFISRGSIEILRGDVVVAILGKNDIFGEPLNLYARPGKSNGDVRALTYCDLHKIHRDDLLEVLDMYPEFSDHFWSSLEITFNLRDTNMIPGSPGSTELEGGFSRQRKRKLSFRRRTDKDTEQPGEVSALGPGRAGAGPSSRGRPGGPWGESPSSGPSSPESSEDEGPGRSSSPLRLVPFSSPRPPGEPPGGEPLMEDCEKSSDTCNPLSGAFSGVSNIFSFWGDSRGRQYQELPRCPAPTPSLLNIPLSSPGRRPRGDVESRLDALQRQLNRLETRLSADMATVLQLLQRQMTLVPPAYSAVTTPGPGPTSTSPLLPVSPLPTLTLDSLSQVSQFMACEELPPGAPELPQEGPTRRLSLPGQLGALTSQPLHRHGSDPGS
Method: Mammalian cells expressing the hERG1 potassium channel were dispensed into 384-well planar arrays and hERG tail-currents were measured by whole-cell voltage-clamping. A range of concentrations (TBD) of the test compounds were then added to the cells and a second recording of the hERG current was made. The percent change in hERG current was calculated.
The experiments were performed on an IonWorks™ FIT instrument (Molecular Devices Corporation), which automatically performs electrophysiology measurements in 48 single cells simultaneously in a specialised 384-well plate (PatchPlate™). All cell suspensions, buffers and test compound solutions were at room temperature during the experiment.
The cells used were Chinese hamster ovary (CHO) cells stably transfected with hERG (cell-line obtained from Cytomyx, UK). A single-cell suspension was prepared in extracellular solution (Dulbecco's phosphate buffered saline with calcium and magnesium pH 7-7.2) and aliquots were added automatically to each well of a PatchPlate™. The cells were then positioned over a small hole at the bottom of each well by applying a vacuum beneath the plate to form an electrical seal. The vacuum was applied through a single compartment common to all wells which were filled with intracellular solution (buffered to pH 7.2 with HEPES). The resistance of each seal was measured via a common ground-electrode in the intracellular compartment and individual electrodes placed into each of the upper wells.
Electrical access to the cell was then achieved by circulating a perforating agent, amphotericin, underneath the PatchPlate™ and then measuring the pre-compound hERG current. An electrode was positioned in the extracellular compartment and a holding potential of −80 mV for 15 sec was applied. The hERG channels were then activated by applying a depolarising step to +40 mV for 5 sec and then clamped at −50 mV for 4 sec to elicit the hERG tail current, before returning to −80 mV for 0.3 s.
A test compound was then added automatically to the upper wells of the PatchPlate™ from a 96-well microtitre plate containing a range of concentrations of each compound. Solutions were prepared by diluting DMSO solutions of the test compound into extracellular buffer. The test compound was left in contact with the cells for 300 sec before recording currents using the same voltage-step protocol as in the pre-compound scan. […] Each concentration was tested in 4 replicate wells on the PatchPlate™.
Post-compound currents were then expressed as a percentage of pre-compound currents and plotted against concentration for each compound. Where concentration-dependent inhibition is observed, the data are fitted to the following equation and an IC50 value calculated: […]
An IC50 was reported if concentration-dependent inhibition is observed. The standard error (SE) of the IC50 model and the number of data-points used to determine IC50 was also reported.

hERG1 = hERG1 (Homo sapiens, UniProt Q12809); experiment: FluxOR potassium channel assay in HEK 293 cells stably expressing hERG1
hERG1, sequence (Q12809 whole entry): as above
Method: The FluxOR™ assay monitors the permeability of potassium channels to thallium (Tl^+) ions. When thallium is added to the extracellular solution with a stimulus to open channels, thallium flows down its concentration gradient into the cells, and channel or transporter activity is detected with a proprietary indicator dye that increases in cytosolic fluorescence. Accordingly, the fluorescence reported in the FluxOR™ system is an indicator of any ion channel activity or transport process that allows thallium into cells.
Briefly, FluxOR™ loading buffer was made from Hank's Balanced Saline Solution (HBSS) buffered with 20 mM HEPES and pH adjusted with NaOH to 7.4. Powerload™ concentrate and water-soluble probenecid were used as directed by the kit to enhance the dye solubility and retention, respectively. Media were removed from the cell plates manually, and 20 of loading buffer containing the FluxOR™ dye mix was applied to each well. Once inside the cell, the nonfluorescent AM ester form of the FluxOR™ dye was cleaved by endogenous esterases into a thallium-sensitive indicator. The dye was loaded for 60 min at room temperature and then removed manually. […] To each well 20 μL stimulation buffer was added and fluorescence measures were done every 1 sec for a total time of 180 sec.

[3] = clinical trial, placed on clinical hold by the FDA; cited from earlier work

T1 sequence (Q12809 whole entry): as above

## COc1nc(N)nc2c1ncn2[C@@H]1O[C@H](COP(=O)(N[C@@H](C)C(=O)OCC(C)(C)C)Oc2cccc3ccccc23)[C@@H](O)[C@@]1(C)O (some centres unmarked) [BMS986094]
hERG channel [1]
  IC50: 266 nM
hERG channel [2]
  IC50: 3.75 nM

## CS(=O)(=O)c1ccc(C2=C(c3ccccc3)C(=O)OC2)cc1 [rofecoxib]
hERG channel [1]
  IC50: 15000 nM
hERG channel [2]
  IC50: 5830 nM

## Nc1nc2c(ncn2[C@@H]2O[C@H](CO)[C@@H](O)[C@H]2O)c(=O)[nH]1 [Guanosine, guanosine]
hERG channel [1]
  effect on hERG tail currents / electrophysiology (in words): none of BMS-986094 metabolites demonstrates either hERG cavity binding or electrophysiology changes
hERG1 potassium channel; human
  inhibition at 300 sec, 0.0032 µM: 0.711%
  inhibition at 300 sec, 0.016 µM: 6.12%
  inhibition at 300 sec, 0.08 µM: -3.46%
  inhibition at 300 sec, 0.4 µM: 26.3%
  inhibition at 300 sec, 2 µM: 0.453%
  inhibition at 300 sec, 10 µM: 5.54%
hERG channel [2]
  displacement of the hERG-bound dye (in words): no detectable effect on hERG blockage

## CC(=O)Oc1ccccc1C(=O)O [Aspirin, acetyl salicylic acid]
hERG1 potassium channel; human
  inhibition at 300 sec, 0.0032 µM: -2.97%
  inhibition at 300 sec, 0.016 µM: -3.09%
  inhibition at 300 sec, 0.08 µM: -21%
  inhibition at 300 sec, 0.4 µM: -5.88%
  inhibition at 300 sec, 2 µM: -3.71%
  inhibition at 300 sec, 10 µM: -0.546%

## O=c1[nH]c2ccccc2n1C1CCN(CCCC(c2ccc(F)cc2)c2ccc(F)cc2)CC1 [Pimozide]
hERG1 potassium channel; human
  inhibition at 300 sec, 0.00032 µM: 2.29%
  inhibition at 300 sec, 0.0016 µM: 4.56%
  inhibition at 300 sec, 0.008 µM: 5.6%
  inhibition at 300 sec, 0.04 µM: 25.1%
  inhibition at 300 sec, 0.2 µM: 9.44%
  inhibition at 300 sec, 1 µM: 83.2%

## COc1nc(N)nc2c1ncn2C1O[C@H](COP(=O)(N[C@H](C)C(=O)OCC(C)(C)C)Oc2cccc3ccccc23)[C@@H](O)[C@@]1(C)O (stereo partly drawn) [BMS-986094, (2R)-neopentyl 2-(((((2R,3R,4R)-5-(2-amino-6-methoxy-9H-purin-9-yl)-3,4-dihydroxy-4-methyltetrahydrofuran-2-yl)methoxy)(naphthalen-1-yloxy)phosphoryl)amino)propanoate]
hERG channel [1]
  IC50: 266 nM
  effect on hERG tail currents / electrophysiology (in words): potently blocks hERG tail currents
hERG1
  block of conductance of the potassium channel (in words): block conductance of the potassium channel
hERG1 potassium channel; CHO cells stably transfected with hERG
  inhibition of the potassium channel (in words): inhibit the potassium channel
hERG1 potassium channel; human
  inhibition at 300 sec, 0.0032 µM: 18.2%
  inhibition at 300 sec, 0.016 µM: -4.94%
  inhibition at 300 sec, 0.08 µM: -8.97%
  inhibition at 300 sec, 0.4 µM: -5.33%
  inhibition at 300 sec, 10 µM: 23.3%
hERG channel [2]
  IC50: 3 nM
[3]
  effects on QT interval prolongation in patients (in words): nine patients in a clinical trial had to be hospitalized and one of them died

## CC(C)NCC(O)c1ccc(NS(C)(=O)=O)cc1 (centres unmarked) [Sotalol]
hERG1 potassium channel; human
  inhibition at 300 sec, 0.0032 µM: 1.69%
  inhibition at 300 sec, 0.016 µM: -0.73%
  inhibition at 300 sec, 0.08 µM: 20.4%
  inhibition at 300 sec, 0.4 µM: 10.9%
  inhibition at 300 sec, 2 µM: 1.72%
  inhibition at 300 sec, 10 µM: 0.95%
